In article PMC7363834, “A STING-based biosensor affords broad cyclic dinucleotide detection within single living eukaryotic cells” (Nature Communications, 2020):

What was measured:
STING-CTD (mSTING-CTD) = molecular target: T1, STING-CTD (mSTING-CTD) (Mus musculus, UniProt Q3TBT3); assay: DRaCALA radioactive nucleotide binding assay of STING-CTD; parameters: species or system murine; details: excess (500 µM) unlabeled nucleotide
T1 construct: made in house; host or cells: E. coli Rosetta (DE3)pLysS; plasmid pET28-mSTING-CTD, gift from Russell Vance
T1 sequence (Q3TBT3 134-378 limits assumed): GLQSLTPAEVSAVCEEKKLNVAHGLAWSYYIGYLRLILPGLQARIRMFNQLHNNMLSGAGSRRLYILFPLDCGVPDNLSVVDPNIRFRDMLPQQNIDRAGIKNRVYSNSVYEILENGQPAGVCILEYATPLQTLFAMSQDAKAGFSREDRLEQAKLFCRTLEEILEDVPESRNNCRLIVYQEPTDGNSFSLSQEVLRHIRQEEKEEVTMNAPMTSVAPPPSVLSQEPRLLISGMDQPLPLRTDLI

BioSTING = molecular target: T2, BioSTING (Mus musculus, UniProt Q3TBT3); assay: DRaCALA radioactive nucleotide binding assay of BioSTING; parameters: species or system murine; details: excess (500 µM) unlabeled nucleotide
T2 construct: FRET pair mTFP and mKO2 at L152 and E335, respectively; His tag (N); made in house; host or cells: E. coli Rosetta (DE3)pLysS
T2 sequence (Q3TBT3 152-335): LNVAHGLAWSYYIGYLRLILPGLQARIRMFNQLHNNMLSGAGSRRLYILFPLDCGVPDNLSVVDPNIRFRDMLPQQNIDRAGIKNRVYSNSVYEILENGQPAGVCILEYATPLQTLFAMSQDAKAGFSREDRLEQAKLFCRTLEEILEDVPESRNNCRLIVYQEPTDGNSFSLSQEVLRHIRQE

SMILES | competition of bound [32P] 2ʼ3ʼ-cGAMP by unlabeled nucleotide (STING-CTD (mSTING-CTD)) | competition of bound [32P] 2ʼ3ʼ-cGAMP by unlabeled nucleotide (BioSTING)
Nc1nc2c(ncn2[C@@H]2O[C@@H]3COP(=O)(O)O[C@H]3[C@H]2O)c(=O)[nH]1 [cGMP] | not | not
Nc1ncnc2c1ncn2[C@@H]1O[C@H](COP(=O)(O)OP(=O)(O)OP(=O)(O)O)[C@@H](O)[C@H]1O [ATP] | not | not
Nc1nc2c(ncn2[C@@H]2O[C@H](COP(=O)(O)OP(=O)(O)OP(=O)(O)O)[C@@H](O)[C@H]2O)c(=O)[nH]1 [GTP] | not | not
